Reference: patent US6914045B2, “Glycopeptide antibiotics” (Wyeth Holdings Corporation, priority 2001, dated 2005)
In brackets after ≈: the same amount, converted by molar mass. Where two headings read alike, the source gives them in different places. Numbered stars: 1 amine (or outer) side, 2 acyl side, 3 side chain; on linkers, the order of the positions; unused ones are H or OH. Square brackets hold non-standard residues; d marks the D form. Peptide text beside a SMILES is read from it. X5 = N=C1NCC(C(O)[C@@H](N[*:1])C(=O)[*:2])N1; X4 = N=C1NCC(C(O)[C@H](N[*:1])C(=O)[*:2])N1; Cha = N[C@@H](CC1CCCCC1)C(=O)O; dCha = N[C@H](CC1CCCCC1)C(=O)O

Columns and labels:
Assay in all cases: in vitro antibacterial evaluation, MIC by broth dilution
Assay type in all cases: cell-based
Escherichia coli = conditions: 18 hours at 35° C.
Procedure, shortened: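 Broth dilution MIC per NCCLS M7-A2 in Mueller-Hinton II medium, inoculum 5×10^5 CFU/mL, antibiotic range 64-0.06 μg/mL. MIC taken as lowest concentration inhibiting growth.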

Enterococcus sp. = conditions: broth dilution, 18 hours at 35° C.
Procedure, shortened: (§1)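 Read-out: the lowest concentration at which the test strain fails to grow. Serial dilutions (64-0.06 μg/mL) in Muller-Hinton II […], 5×10^5 CFU/mL inoculum, NCCLS M7-A2 procedure.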

Streptococcus sp. = conditions: broth dilution, 18 hours at 35° C.
Procedure, shortened: as §1

Staphylococcus sp. = conditions: broth dilution, 18 hours at 35° C.
Procedure, shortened: as §1

Work on N=C1NCC(C(O)[C@@H]2NC(=O)[C@@H](CC3CCCCC3)NC(=O)[C@H](CC3CCCCC3)NC(=O)CNC(=O)[C@H](CO)NC(=O)[C@@H](C(O)C3CNC(=N)N3)NC2=O)N1 (stereo partly drawn) [Example 58, Cyclo[3-cyclohexylalanyl-3-cyclohexylalanyl-3-(2-iminoimidazolidin-4-yl)seryl-3-(2-iminoimidazolidin-4-yl)-serylserylglycyl]] (cyclo([Cha][dCha][X4][X5]SG)) yielded an MIC (Escherichia coli; Escherichia coli (ATCC 25922), read-out: MIC Escherichia coli (ATCC 25922)) of 16 µg/mL (≈ 20.2 µM), an MIC (Escherichia coli; Escherichia coli, read-out: MIC Escherichia coli (GC 4559)) of 8 µg/mL (≈ 10.1 µM) and an MIC (Escherichia coli; Escherichia coli, read-out: MIC Escherichia coli (GC 4560)) of 16 µg/mL (≈ 20.2 µM). The “MIC Enterococcus avium (GC 4558)” value (Enterococcus sp.; Enterococcus avium (GC 4558)) was 32 µg/mL (≈ 40.5 µM), the “MIC Enterococcus faecalis (ATCC 29212)” value (Enterococcus sp.; Enterococcus faecalis (ATCC 29212)) was 64 µg/mL (≈ 80.9 µM) and the “MIC Enterococcus faecalis (GC 4552)” value (Enterococcus sp.; Enterococcus faecalis (GC 4552)) was 64 µg/mL (≈ 80.9 µM). For the same compound, the “MIC Enterococcus faecalis (GC 4553)” value (Enterococcus sp.; Enterococcus faecalis (GC 4553)) was 32 µg/mL (≈ 40.5 µM), the “MIC Enterococcus faecalis (GC 4554)” value (Enterococcus sp.; Enterococcus faecalis (GC 4554)) was 64 µg/mL (≈ 80.9 µM) and the “MIC Enterococcus faecalis (GC 6189)” value (Enterococcus sp.; Enterococcus faecalis (GC 6189)) was 64 µg/mL (≈ 80.9 µM). For the same compound, the “MIC Enterococcus faecium (GC 2243)” value (Enterococcus sp.; Enterococcus faecium (GC 2243)) was 32 µg/mL (≈ 40.5 µM), the “MIC Enterococcus faecium (GC 4556)” value (Enterococcus sp.; Enterococcus faecium (GC 4556)) was 64 µg/mL (≈ 80.9 µM) and the “MIC Enterococcus faecium (GC 4557)” value (Enterococcus sp.; Enterococcus faecium (GC 4557)) was 8 µg/mL (≈ 10.1 µM). For the same compound, the MIC (Enterococcus sp.; read-out: MIC Enterococcus avium (GC 4558)) was 32 µg/mL (≈ 40.5 µM), the MIC (Enterococcus sp.; read-out: MIC Enterococcus faecalis (ATCC 29212)) was 64 µg/mL (≈ 80.9 µM) and the MIC (Enterococcus sp.; read-out: MIC Enterococcus faecalis (GC 2242)) was 64 µg/mL (≈ 80.9 µM). The MIC (Enterococcus sp.; read-out: MIC Enterococcus faecalis (GC 2691)) was 64 µg/mL (≈ 80.9 µM), the MIC (Enterococcus sp.; read-out: MIC Enterococcus faecalis (GC 3059)) was 64 µg/mL (≈ 80.9 µM) and the MIC (Enterococcus sp.; read-out: MIC Enterococcus faecalis (GC 4552)) was 64 µg/mL (≈ 80.9 µM). It also gave an MIC (Enterococcus sp.; read-out: MIC Enterococcus faecalis (GC 4553)) of 32 µg/mL (≈ 40.5 µM), an MIC (Enterococcus sp.; read-out: MIC Enterococcus faecalis (GC 4554)) of 64 µg/mL (≈ 80.9 µM) and an MIC (Enterococcus sp.; read-out: MIC Enterococcus faecalis (GC 6189)) of 64 µg/mL (≈ 80.9 µM). For the same compound, the MIC (Enterococcus sp.; read-out: MIC Enterococcus faecium (GC 2243)) was 32 µg/mL (≈ 40.5 µM), the MIC (Enterococcus sp.; read-out: MIC Enterococcus faecium (GC 4556)) was 64 µg/mL (≈ 80.9 µM) and the MIC (Enterococcus sp.; read-out: MIC Enterococcus faecium (GC 4557)) was 8 µg/mL (≈ 10.1 µM). The “MIC Enterococcus faecalis (GC 2242)” value (Enterococcus sp.; strain GC 2242) was 64 µg/mL (≈ 80.9 µM), the “MIC Enterococcus faecalis (GC 2691)” value (Enterococcus sp.; strain GC 2691) was 64 µg/mL (≈ 80.9 µM) and the “MIC Enterococcus faecalis (GC 3059)” value (Enterococcus sp.; strain GC 3059) was 64 µg/mL (≈ 80.9 µM). For the same compound, the MIC (Streptococcus sp.; read-out: MIC Streptococcus agalactiae (GC 4564)) was 16 µg/mL (≈ 20.2 µM), the MIC (Streptococcus sp.; read-out: MIC Streptococcus pneumoniae (ATCC 6301)) was 8 µg/mL (≈ 10.1 µM) and the MIC (Streptococcus sp.; read-out: MIC Streptococcus pneumoniae (GC 1894)) was 8 µg/mL (≈ 10.1 µM). The MIC (Streptococcus sp.; read-out: MIC Streptococcus pneumoniae (GC 4565)) was 16 µg/mL (≈ 20.2 µM), the MIC (Streptococcus sp.; read-out: MIC Streptococcus pyogenes (GC 4563)) was 8 µg/mL (≈ 10.1 µM) and the “MIC Streptococcus pneumoniae (ATCC 6301)” value (Streptococcus sp.; strain ATCC 6301) was 8 µg/mL (≈ 10.1 µM). For the same compound, the “MIC Streptococcus pneumoniae (GC 1894)” value (Streptococcus sp.; strain GC 1894) was 8 µg/mL (≈ 10.1 µM), the “MIC Streptococcus pyogenes (GC 4563)” value (Streptococcus sp.; strain GC 4563) was 8 µg/mL (≈ 10.1 µM) and the “MIC Streptococcus agalactiae (GC 4564)” value (Streptococcus sp.; strain GC 4564) was 16 µg/mL (≈ 20.2 µM). The “MIC Streptococcus pneumoniae (GC 4565)” value (Streptococcus sp.; strain GC 4565) was 16 µg/mL (≈ 20.2 µM), the MIC (Staphylococcus sp.; Staphylococcus, strain GC 4543, read-out: MIC Staphylococcus aureus-SMITH (GC 4543)) was 4 µg/mL (≈ 5.06 µM) and the MIC (Staphylococcus sp.; Staphylococcus, strain GC 4547, read-out: MIC Coagulase Negative Staphylococcus (GC 4547)) was 4 µg/mL (≈ 5.06 µM). The MIC (Staphylococcus sp.; Staphylococcus, strain GC 4548, read-out: MIC Coagulase Negative Staphylococcus (GC 4548)) was 4 µg/mL (≈ 5.06 µM), the MIC (Staphylococcus sp.; Staphylococcus, strain GC 4549, read-out: MIC Coagulase Negative Staphylococcus (GC 4549)) was 4 µg/mL (≈ 5.06 µM) and the MIC (Staphylococcus sp.; Staphylococcus, strain GC 4551, read-out: MIC Coagulase Negative Staphylococcus (GC 4551)) was 8 µg/mL (≈ 10.1 µM). It also gave an MIC (Staphylococcus sp.; strain ATCC 29213, read-out: MIC Staphylococcus aureus (ATCC 29213)) of 16 µg/mL (≈ 20.2 µM), an MIC (Staphylococcus sp.; strain GC 1131, read-out: MIC Staphylococcus aureus (GC 1131)) of 8 µg/mL (≈ 10.1 µM) and an MIC (Staphylococcus sp.; strain GC 3051, read-out: MIC Staphylococcus aureus (GC 3051)) of 16 µg/mL (≈ 20.2 µM). The MIC (Staphylococcus sp.; strain GC 3053, read-out: MIC Staphylococcus aureus (GC 3053)) was 32 µg/mL (≈ 40.5 µM), the MIC (Staphylococcus sp.; strain GC 4541, read-out: MIC Staphylococcus aureus (GC 4541)) was 16 µg/mL (≈ 20.2 µM) and the MIC (Staphylococcus sp.; strain GC 4542, read-out: MIC Staphylococcus aureus (GC 4542)) was 16 µg/mL (≈ 20.2 µM). For the same compound, the MIC (Staphylococcus sp.; strain GC 4544, read-out: MIC Staphylococcus aureus (GC 4544)) was 16 µg/mL (≈ 20.2 µM), the MIC (Staphylococcus sp.; strain GC 4545, read-out: MIC Staphylococcus aureus (GC 4545)) was 8 µg/mL (≈ 10.1 µM) and the MIC (Staphylococcus sp.; strain GC 4546, read-out: MIC Staphylococcus haemolyticus (GC 4546)) was 4 µg/mL (≈ 5.06 µM).
